Reference: patent US20140147397A1, “STABLE AMORPHOUS SOLID FORM OF A TRIAZINE DERIVATIVE AND THE CORRESPONDING MANUFACTURING PROCESS” (3V SIGMA S.P.A., priority 2012, published 2014)

Tests used:
Type in all cases: physicochemical
[1] = Dissolution rate test in caprylic/capric triglyceride; details: 4.0 g powder in 96.0 g caprylic/capric triglyceride, stirring, 25° C., visual inspection
Method: (§1) Description of dissolution rate test. 4.0 g of powder was dispersed under stirring in 96.0 g of caprylic/capric triglyceride solvent at 25° C. The total dissolution time was measured, with visual inspection, noting the time of complete disappearance of any heterogeneity in the form of particles or opalescence in the solution.

[2] = Dissolution rate test in octyl dodecanol; details: 4.0 g powder in 96.0 g octyl dodecanol, stirring, 25° C., visual inspection
Method: as §1, with “octyl dodecanol” for “caprylic/capric triglyceride”

[3] = Stability of the amorphous solid form by DSC; details: for solid form stability by DSC: DSC technique
Method: Samples 1C and 1A were characterised by the differential scanning calorimetry (DSC) technique. […] The amorphous solid sample 1A according to the present invention presented a first exothermic transition (corresponding to a formation of crystalline form) at temperatures of between 50 and 90° C., and subsequently at 128° C., the endothermic transition corresponding to melting of the crystalline form that formed at lower temperatures.
Sample 1A was stored for 12 months at room temperature and subjected to a second DSC measurement. Its appearance was still that of a white powder.

[4] = Dissolution rate test in ethylhexyl stearate; details: 4.0 g powder in 96.0 g ethylhexyl stearate, stirring, 25° C., visual inspection
Method: as §1, with “ethylhexyl stearate” for “caprylic/capric triglyceride”

Structure (SMILES) | dissolution time [1] | solid form stability by DSC [3] | dissolution time [2] | DSC curve after storage (stability of amorphous form) ([3]; stored for 12 months at room temperature, second DSC measurement) | dissolution time [4]
CCCCC(CC)COC(=O)c1ccc(Nc2nc(Nc3ccc(C(=O)OCC(CC)CCCC)cc3)nc(Nc3ccc(C(=O)OCC(CC)CCCC)cc3)n2)cc1 (stereo not drawn) [Sample 1C, reference compound] | over 90 minutes |  | over 420 minutes (insoluble-opaque white dispersion) |  | over 420 minutes (opaque white dispersion)
CCCCC(CC)COC(=O)c1ccc(Nc2nc(Nc3ccc(C(=O)OCC(CC)CCCC)cc3)nc(Nc3ccc(C(=O)OCC(CC)CCCC)cc3)n2)cc1 (stereo not drawn) [Sample 2A] | 15 min | stable amorphous form |  |  | 
CCCCC(CC)COC(=O)c1ccc(Nc2nc(Nc3ccc(C(=O)OCC(CC)CCCC)cc3)nc(Nc3ccc(C(=O)OCC(CC)CCCC)cc3)n2)cc1 (stereo not drawn) [Sample 2C, reference compound] | over 90 minutes |  |  |  | 

Further lines, with some results ahead:

dissolution time [1] | solid form stability by DSC [3] | Structure (SMILES) | dissolution time [2] | DSC curve after storage (stability of amorphous form) ([3]; stored for 12 months at room temperature, second DSC measurement) | dissolution time [4]
15 min |  | CCCCC(CC)COC(=O)c1ccc(Nc2nc(Nc3ccc(C(=O)OCC(CC)CCCC)cc3)nc(Nc3ccc(C(=O)OCC(CC)CCCC)cc3)n2)cc1 (stereo not drawn) [Sample 1A] | 90 min | identical to the curve obtained a year earlier | 40 min
15 min | stable amorphous form | CCCCC(CC)COC(=O)c1ccc(Nc2nc(Nc3ccc(C(=O)OCC(CC)CCCC)cc3)nc(Nc3ccc(C(=O)OCC(CC)CCCC)cc3)n2)cc1 (stereo not drawn) [Sample 3A] |  |  | 
